Measured values: patent EP2490021A1, “Modulators of PRR and GPCR signalling” (Biotempt B.V., priority 2011, dated 2012)
Entries after “also recorded” stand apart in the source; their conditions may differ. Where a SMILES comes first, the peptide text is derived from it.

How the values were obtained:
Type in all cases: cell-based, human
NOD = assay: Kinase phosphorylation in PBMC-derived monocytes challenged with NOD ligand peptidoglycan; conditions: 2 µg/ml PGN, at 50 ng/ml
Procedure: (§1) PMBC-derived monocytes were isolated from healthy volunteers (hPBMCs) according to routine procedures^1. […]
(§2) Following stimulation, the phosphorylation status of p38MAPK, JNK, PKB, and P42/p44MAPK/ERK1,2 was analysed^3. Results were corrected for differences using co-measurement of β-actin^4.

neutrophils [1] = assay: LPS-driven cytokine production by neutrophils; conditions: 1 µg/mL LPS 24 hours, both concentrations (20 or 50 ng/mL), p=0.01 versus LPS
Procedure: (§3) Blood was drawn from 2 healthy volunteers into tubes containing citrate as an anticoagulant. Neutrophils were isolated by using a Polymorphprep kit (Nicomed, Oslo, Norway) according to the manufacturer's instructions. The purity of the cells, as assessed by flow cytometry (anti-CD45, 14, DR, and CD66b), was > 93%.
5x10^5 cells were incubated in the presence of 1 µg/mL LPS (E.coli O111:B4, Sigma-Aldrich) or pre-stimulated with 20 or 50 ng/mL of EA-230 (peptide AQGV) and then incubated in the presence of 1 µg/mL LPS for 24 hours (37°C, 5% CO2). At the end of the incubation period, supernatants were harvested and concentrations of TNF-α, IL-6, and IL-8 were measured by flow cytometry using Bender Flowcytomics kit (Bender Med systems, Burlingame, USA) according to the recommendations of the manufacturer. Concentrations of IL-10 were determined by ELISA (RnD Systems). Measurements were done in duplicate.

NF-kB = NF-kB p50 and p65 subunit activity ELISA, LPS-stimulated neutrophils; conditions: 1 µg/mL LPS 15 minutes, both concentrations, p=0.03 vs LPS alone
Procedure: as §3
[…] At the end of the incubation period, the cells were put on ice, and nuclear proteins were extracted using Nuclear Extraction Kit (Cayman chemicals, Ann Harbor, USA), according to the recommendations of the manufacturer. The total protein concentration was measured using a conventional Lowry assay (Pierce).
P50 and p65 NF-kB subunit activity was determined by ELISA (Cayman chemicals). This assay allows the determination of the true NF-kB activity by measuring the binding of its subunits to specific consensus sequences. This assay is similar to the traditional EMSA, though more sensitive. 10 µg of proteins were used per assay. Analysis was performed in duplicate.

TLR-4 [2] = assay: p38 MAPK phosphorylation in hPBMC challenged with LPS (Example 4); conditions: 2 µg/ml LPS; for p38 MAPK phosphorylation: low concentrations of peptide, compared to control (LPS stimulated, no peptide added); for TLR-4 mediated signalling induced by LPS, p38 MAPK phosphorylation status: peptide at 20 ng/ml
Procedure: (§4) Subsequently PMBC were incubated with 1.3, 3.2, 8, 20 and 50 ng/ml peptide AQGV , LQGV, AQG, LQG, QGV, AQ, LQ, GV or QG (peptide, which was freshly prepared as a 20 mg/ml stock solution in bidistilled water) or treated with the cell culture medium alone for 10 min.
(§5) hPMBC were challenged with 2 µg/ml TLR-4 ligand LPS for 1 min, 5 min, 10 min and 20 min.

TLR-4 [3] = assay: PKB phosphorylation in hPBMC challenged with LPS (Example 4); conditions: 2 µg/ml LPS
Procedure: as §4, §5

FPR = assay: Kinase phosphorylation in PBMC-derived monocytes challenged with fMLP; conditions: 1 µM fmlp, at both 20 ng/ml and 50 ng/ml
Procedure: PMBC-derived monocytes were isolated from healthy volunteers (hPBMCs) according to routine procedures^1. Subsequently PMBC were incubated with 20 ng/ml peptide AQGV (Biotempt peptide, which was freshly prepared as a 20 mg/ml stock solution in bidistilled water) or treated with the cell culture medium alone for 10 min. hPMBC were challenged with: • 1) 2 µg/ml TLR-4 ligand LPS ^2 for 1 min, 5 min, 10 min and 20 min, • 2) 2 µg/ml NOD ligand peptidoglycan (PGN) for 1 min, 5 min, 10 min and 20 min, or • 3) 1 µM fmlp (formyl-Met-Leu-Phe) for 1 min, 5 min, 10 min and 20 min.
as §2

TLR-4 [4] = assay: Kinase phosphorylation in PBMC-derived monocytes challenged with TLR-4 ligand LPS; conditions: 2 µg/ml LPS, at 20 ng/ml and at 50 ng/ml
Procedure: as §1, §2

monocytes = assay: Phosphoprotein array, LPS-stimulated monocytes; conditions: 1 µg/mL LPS, pre-incubation with 20 ng/mL
Procedure: as §3, with “from” for “from 2”, “instructions; monocytes were purified with magnetic beads (Miltenyi Biotech).” for “instructions.”, “93%. For each cell type, samples from two different donors were examined.” for “93%.”
(§6) 5x10^6 cells were incubated in the presence of 1 µg/mL LPS (E.coli O111:B4, Sigma-Aldrich) or pre-stimulated with 20 ng/mL of EA-230 (peptide AQGV) and then incubated in the presence of 1 µg/mL LPS for 0, 5, 15 and 30 minutes (37°C, 5% CO2). At the end of the incubation period, the cells were put on ice, and proteins were extracted using Phosphosafe reagent (Novagen), according to the recommendations of the manufacturer. The total protein concentration was measured using a conventional Lowry assay (Pierce).
(§7) To determine the relative levels of protein phosphorylation, a human PhosphoKinase array (RnD Systems) was used according to the recommendations of the manufacturer. 200 µg of protein were used per array. Spot pixel density was determined for each protein and ratios to the controls (no LPS and no EA stimulation) were measured.

neutrophils [5] = assay: Phosphoprotein array, LPS-stimulated neutrophils; conditions: 1 µg/mL LPS, pre-stimulated with 20 ng/mL
Procedure: as §3, with “from” for “from 2”, “instructions; monocytes were purified with magnetic beads (Miltenyi Biotech).” for “instructions.”, “93%. For each cell type, samples from two different donors were examined.” for “93%.”
as §6, §7

[6] = low concentrations, i.e. below 20 ng/ml, compared to control (LPS stimulated, no peptide added)

Compound: CC(C)[C@H](NC(=O)CNC(=O)[C@H](CCC(N)=O)NC(=O)[C@H](C)N)C(=O)O [AQGV] (H-AQGV-OH)
- NOD-signalling induced by peptidoglycan, JNK phosphorylation status (NOD): seemingly stimulates
- NOD-signalling induced by peptidoglycan, P42/p44MAPK/ERK1,2 phosphorylation status (NOD): seemingly stimulates
- NOD-signalling induced by peptidoglycan, PKB phosphorylation status (NOD): seemingly stimulates
- NOD-signalling induced by peptidoglycan, p38MAPK phosphorylation status (NOD): seemingly stimulates
- LPS induced production of IL-6 (neutrophils [1]): reduced the cytokine production almost to control values
- LPS induced production of IL-8 (neutrophils [1]): reduced the cytokine production almost to control values
- LPS induced production of IL-10 (neutrophils [1]): reduced the cytokine production almost to control values
- LPS induced production of TNF-α (neutrophils [1]): reduced the cytokine production almost to control values
- LPS induced NF-kB p50 activity (NF-kB): reduced this LPS induced activation
- LPS induced NF-kB p65 activity (NF-kB): reduced this LPS induced activation
- p38 MAPK phosphorylation (TLR-4 [2]): already modulated
- TLR-4 mediated signalling induced by LPS, p38 MAPK phosphorylation status (TLR-4 [2]): initial downregulation
- TLR-4 mediated signalling induced by LPS, PKB phosphorylation status (TLR-4 [3]; [6]): already display a modulation
- TLR-4 mediated signalling induced by LPS, PKB phosphorylation status (TLR-4 [3]; peptide at 20 ng/ml): reduced
- FPR signalling induced by fMLP (FPR): slightly attenuated
- FPR signalling induced by fMLP, PKB phosphorylation (FPR): induction of PKB phosphorylation was initially seen, followed by downregulation
- FPR signalling induced by fMLP, p38MAPK phosphorylation (FPR): downregulation
- TLR-4 mediated signalling induced by LPS, JNK phosphorylation status (TLR-4 [4]): reduced
- TLR-4 mediated signalling induced by LPS, P42/p44MAPK/ERK1,2 phosphorylation status (TLR-4 [4]): reduced
- TLR-4 mediated signalling induced by LPS, PKB phosphorylation status (TLR-4 [4]): reduced
- TLR-4 mediated signalling induced by LPS, p38MAPK phosphorylation status (TLR-4 [4]): reduced
- eNOS phosphorylation (monocytes): strongly stimulated
- LPS-driven phosphorylation of AMPK (monocytes; at 15 minutes): prevented this effect
- LPS-driven phosphorylation of ERK1/2 (monocytes; at 15 minutes): prevented this effect
- LPS-driven phosphorylation of JNK (monocytes; at 15 minutes): prevented this effect
- LPS-driven phosphorylation of MSK (monocytes; at 15 minutes): prevented this effect
- LPS-driven phosphorylation of P38 MAPK (monocytes; at 15 minutes): prevented this effect
- LPS-driven phosphorylation of PKB/AKT (monocytes; at 15 minutes): prevented this effect
- eNOS phosphorylation (neutrophils [5]): increase
- LPS-driven phosphorylation of CREB (neutrophils [5]; at 15 minutes): blunted
- LPS-driven phosphorylation of ERK1/2 (neutrophils [5]; at 15 minutes): blunted
- LPS-driven phosphorylation of GSK 3a/b (neutrophils [5]; at 15 minutes): blunted
- LPS-driven phosphorylation of MEK1/2 (neutrophils [5]; at 15 minutes): blunted
- LPS-driven phosphorylation of P38 MAPK (neutrophils [5]; at 15 minutes): blunted

Compound: C[C@H](N)C(=O)N[C@@H](CCC(N)=O)C(=O)O [AQ] (H-Ala-Gln-OH)
- p38 MAPK phosphorylation (TLR-4 [2]): already modulated
- TLR-4 mediated signalling induced by LPS, p38 MAPK phosphorylation status (TLR-4 [2]): slight overall downregulation
- TLR-4 mediated signalling induced by LPS, PKB phosphorylation status (TLR-4 [3]; [6]): already display a modulation
- TLR-4 mediated signalling induced by LPS, PKB phosphorylation status (TLR-4 [3]; peptide at 20 ng/ml): inhibited

Compound: CC(C)C[C@H](N)C(=O)N[C@@H](CCC(N)=O)C(=O)NCC(=O)N[C@H](C(=O)O)C(C)C [LQGV] (H-LQGV-OH)
- p38 MAPK phosphorylation (TLR-4 [2]): already modulated
- TLR-4 mediated signalling induced by LPS, p38 MAPK phosphorylation status (TLR-4 [2]): initial downregulation
- TLR-4 mediated signalling induced by LPS, PKB phosphorylation status (TLR-4 [3]; peptide at 20 ng/ml): reduced; also recorded: significantly downregulated

Compound: CC(C)C[C@H](N)C(=O)N[C@@H](CCC(N)=O)C(=O)NCC(=O)O [LQG] (H-Leu-Gln-Gly-OH)
- p38 MAPK phosphorylation (TLR-4 [2]): already modulated
- TLR-4 mediated signalling induced by LPS, p38 MAPK phosphorylation status (TLR-4 [2]): initial downregulation

Compound: CC(C)C[C@H](N)C(=O)N[C@@H](CCC(N)=O)C(=O)O [LQ] (H-Leu-Gln-OH)
- TLR-4 mediated signalling induced by LPS, PKB phosphorylation status (TLR-4 [3]; [6]): already display a modulation
- TLR-4 mediated signalling induced by LPS, PKB phosphorylation status (TLR-4 [3]; peptide at 20 ng/ml): inhibited

Compound: CC(C)[C@H](NC(=O)CNC(=O)[C@@H](N)CCC(N)=O)C(=O)O [QGV] (H-Gln-Gly-Val-OH)
- p38 MAPK phosphorylation (TLR-4 [2]): already modulated
- TLR-4 mediated signalling induced by LPS, PKB phosphorylation status (TLR-4 [3]; [6]): already display a modulation
- TLR-4 mediated signalling induced by LPS, PKB phosphorylation status (TLR-4 [3]; peptide at 20 ng/ml): at least initial, inhibition

Compound: NC(=O)CC[C@H](N)C(=O)NCC(=O)O [QG] (H-Gln-Gly-OH)
- p38 MAPK phosphorylation (TLR-4 [2]): already modulated
- TLR-4 mediated signalling induced by LPS, p38 MAPK phosphorylation status (TLR-4 [2]): slight upregulation
